From PMC10223470 (Molecules, 2023) come the findings set out here.

Data set [1] relates to mice. Kind of data set: Spontaneous locomotor activity in mice. The data set is classed as in vivo. The note with it: for Distance Traveled after 10 min / Distance Traveled after 30 min: mean ± SEM, n=10. As for the experimental part: (§1) The experiments were carried out on 6 weeks old naive Swiss male mice (Experimental Medicine Center (OMD), Lublin, Poland), weighing 28–30 g. The cages with mice were located in air-conditioned rooms maintaining the ambient temperature within the range of 23–25 °C. The animals were provided with a natural 12 h day/night cycle, replicating the day and night mode. Each testing group was represented by 8–10 animals, depending on the research schedule. All experiments were conducted according to the National Institute of Health Guidelines for the Care and Use of Laboratory Animals (8th edition) and to the European Community Council Directive for the Care and Use of Laboratory Animals of 22 September 2010 (2010/63/EU) and were approved by the Local Ethical Committee (number of ethical approval: 147/2018).
(§2) Compound 17 (25, 50, 75 mg/kg) was suspended in 1% Tween 80 in saline solution and was administered intraperitoneally (i.p.) 60 min before the test. Diazepam (DZ, Relanium, Polfa, Poland) at a dose of 1 mg/kg was diluted in 0.9% saline containing 1% Tween 80 and was administered subcutaneously (s.c.), 60 min before the test. Imipramine hydrochloride (30 mg/kg, Sigma-Aldrich was administered intraperitoneally (i.p.) 60 min before the test. D-amphetamine sulfate (3 mg/kg; Sigma-Aldrich, USA) was given subcutaneously (s.c.). Prior to administration, the agent was dissolved in saline and injected 30 min before the test. Control animals received an (i.p.) or (s.c.) injection of a respective vehicle. All compounds were injected in a manner generally accepted in experimental pharmacology, in an amount of 10 mL/kg body weight.
(§3) The measurement of the spontaneous locomotor activity was carried out using the OptoVarimex 4 Auto-Track device (Columbus Instruments, Columbus, OH, USA). Tested animals are kept in cages for 30 min. Their activity was recorded as interruptions of the light beams after 10 and 30 min of the test, and it was calculated automatically as a traveled distance in cm (±SEM). To determine whether compound 17 has an influence on amphetamine-induced hyperactivity, each mouse received 17 (25, 50 and 75 mg/kg; i.p.) and amphetamine (3 mg/kg; s.c.) 30 min after injection of 17 or vehicle and then spontaneous locomotor activity was measured.

Data set [2] deals with T1, human dopamine D1 receptor (Homo sapiens, UniProt P21728).
T1 construct: expressed in transfected cells; host or cells: CHO-K1
T1 sequence (P21728 whole entry): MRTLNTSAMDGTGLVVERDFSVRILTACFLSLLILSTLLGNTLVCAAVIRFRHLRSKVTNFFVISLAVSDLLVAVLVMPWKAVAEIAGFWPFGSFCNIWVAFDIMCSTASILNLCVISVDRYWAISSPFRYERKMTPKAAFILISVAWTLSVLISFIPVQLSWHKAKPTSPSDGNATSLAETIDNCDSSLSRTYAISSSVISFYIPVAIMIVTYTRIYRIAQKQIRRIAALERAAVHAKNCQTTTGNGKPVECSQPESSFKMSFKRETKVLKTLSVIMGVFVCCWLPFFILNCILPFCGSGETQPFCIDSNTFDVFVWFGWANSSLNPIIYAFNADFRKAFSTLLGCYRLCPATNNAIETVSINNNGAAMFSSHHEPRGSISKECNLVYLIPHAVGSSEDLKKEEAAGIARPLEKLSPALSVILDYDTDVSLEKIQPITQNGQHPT
Kind of data set: Competition radioligand binding at human D1 receptor ([3H]-SCH-23390). The note with it: mean ± SEM of 2 independent experiments, read-out: huD1 % inh. at 10 µM. On the procedure: (§4) Competition radioligand binding assays were performed on membranes isolated from cell lines stably expressing the cloned human receptors, which were either in-house or commercially available. […] Assays (250 μL assay final volume) were carried out in 96-well polypropylene plates in duplicate. In short, the suspension of appropriate membrane protein was incubated in an assay buffer with the addition of the corresponding radioligand, in the presence or absence of a tested compound or reference compound. […] After the incubation, the content of the test plates was transferred to 96 well plates with glass fiber filter GF/B or GF/C, previously pretreated with polyethyleneimine (PEI), and rapidly filtered with the use of vacuum, followed by rapid washing with cold (4 °C) wash buffer. After that, the filter plates were dried at 60 °C for 1 h. Then, 30 μL of liquid scintillation cocktail (UniverSol-ES, MP Biomedicals, Solon, OH, USA) was added to each well of the filter plates, and the radioactivity was measured in a MicroBeta^2 microplate scintillation counter (PerkinElmer, Madrid, Spain).
(§5) Competition binding curves were fitted to a one-site competition binding model (Fit Ki) with the use of Prism 7 software (GraphPad, San Diego, CA, USA). logKi (log of the equilibrium dissociation constant (Ki)) values were obtained after constraining the concentration of radioligand employed in the assay and its dissociation constant (KD) as determined in saturation radioligand binding assays.

Data set [3] deals with mice. Description: Motor coordination, rotarod test. The data set is classed as in vivo. The note with it: 25, 50 and 75 mg/kg i.p., 60 min before testing. On the procedure: as §1, with “147/2018). Compound 17 (25, 50, 75 mg/kg) was suspended in 1% Tween 80 in saline solution and was administered intraperitoneally (i.p.) 60 min before the test. […] Imipramine hydrochloride (30 mg/kg, Sigma-Aldrich was administered intraperitoneally (i.p.) 60 min before the test. […] Sigma-Aldrich, USA) was given subcutaneously (s.c.). Prior to administration, the agent was dissolved in saline and injected 30 min before the test. […] Motor coordination has been assessed in mice using the chimney test and the rotarod test, according to the procedure we had used before. […]” for “147/2018).”

Data set [4] deals with mice. Description: Amphetamine-induced hyperactivity in mice. The data set is classed as in vivo. As to conditions: amphetamine 3 mg/kg s.c.; for effect on amphetamine-induced hyperactivity after 10 min / effect on amphetamine-induced hyperactivity after 30 min: p < 0.05 vs amphetamine group. On the procedure: as §1, §2, §3
Data set [5] has as its target T2, human dopamine D3 receptor (Homo sapiens, UniProt P35462).
T2 construct: expressed in transfected cells; host or cells: CHO-K1
Kind of data set: Competition radioligand binding at human D3 receptor ([3H]-Spiperone). As to conditions: mean ± SEM of 2 independent experiments, read-out: huD3 % inh. at 10 µM. On the procedure:
as §4, §5

Where [6] appears, read: 25 mg/kg i.p. 60 min before the test.
Setting [7] is: 50 mg/kg i.p. 60 min before the test.
Where [8] appears, read: 75 mg/kg i.p. 60 min before the test.

T2 sequence (P35462 whole entry): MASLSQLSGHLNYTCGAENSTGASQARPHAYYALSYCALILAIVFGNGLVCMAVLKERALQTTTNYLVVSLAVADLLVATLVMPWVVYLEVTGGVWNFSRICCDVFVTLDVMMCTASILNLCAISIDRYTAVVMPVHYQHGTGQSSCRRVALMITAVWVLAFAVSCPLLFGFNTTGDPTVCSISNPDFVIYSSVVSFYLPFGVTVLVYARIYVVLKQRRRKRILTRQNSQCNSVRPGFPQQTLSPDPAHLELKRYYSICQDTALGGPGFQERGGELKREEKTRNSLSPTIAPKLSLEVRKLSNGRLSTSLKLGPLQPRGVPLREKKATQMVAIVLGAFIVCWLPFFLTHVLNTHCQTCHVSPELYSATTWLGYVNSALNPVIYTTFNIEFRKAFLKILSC

On to `O=C(CCN1C(=O)CSc2ccccc21)Nc1ccc(Cl)cc1` [Compound 17, N-(4-Chlorophenyl)-3-(3-oxo-2,3-dihydro-4H-benzo[b][1,4]thiazin-4-yl)propanamide], for which the “Distance Traveled after 10 min” value is on record as 910.1 ± 139.3 cm in data set [1] (setting [6]), 855.9 ± 195.1 cm in data set [1] (setting [7]) and 1200 ± 216.0 cm in data set [1] (setting [8]). The results for the “Distance Traveled after 30 min” value in data set [1] (setting [6]), in data set [1] (setting [7]) and in data set [1] (setting [8]) were 2003 ± 355.7 cm, 2345 ± 616.0 cm and 2983 ± 595.8 cm, respectively. Also, the “effect on locomotor activity versus the control group” value in data set [1] (25, 50 and 75 mg/kg i.p., after 10 min and after 30 min) is listed as “no statistically significant effects”. The inhibition at 10 µM in data set [2] was found to be 21 ± 2%; in data set [5] it was 6 ± 3%. Besides, the “effect on behavior in the rotarod test” value in data set [3] is recorded as “did not influence mice behavior”. For the same compound, the “effect on amphetamine-induced hyperactivity” value in data set [4] (25 mg/kg i.p.) is “inactive”. Moreover, the “effect on amphetamine-induced hyperactivity after 10 min” value in data set [4] (50 mg/kg i.p.) and in data set [4] (75 mg/kg i.p.) was “decreased” in each case. The “effect on amphetamine-induced hyperactivity after 30 min” value in data set [4] (50 mg/kg i.p.) and in data set [4] (75 mg/kg i.p.) was “decreased” throughout.
